Patent US8909483B2, “Direct or indirect diagnostic test for helminth infection” (priority 2002, dated 2014)

Assays:
Assay type in all cases: in vivo, outbred Swiss mice
S. mansoni [1] = test: First vaccination experiment against S. mansoni (Example 4, FIG. 11); settings: 70 μg peptide + MPL-TDM + Al(OH)3, inguinal route, challenge 100 cercariae 60 days after last immunization, perfused 45 days later
Experimental: Percentage protection, {(C−V)/C}×100}, of outbred Swiss mice is given after vaccination and subsequent challenge with 100 cercariae. From left to right the bars correspond to vaccination with peptide 1.2, peptide 1.3, peptide 1.4, peptide 2.1, peptide 2.2, peptide 2.3, peptide 2.4, peptide 2.5, peptide 2.6, r-Sm14, saline extract (SE) administered via the footpad, SE administered via the inguinal route, adjuvant and PBS respectively. All peptides were administered via the inguinal route. All peptides were administered in the presence of the adjuvant monophosphoryl lipid A+trehalose dicorynomycolate (MPL-TDM, Ribi ImmunoChem Research Inc.)+Alum.
In this experiment, outbreed Swiss mice were immunized with two intradermal/subcutaneous doses at an interval of 7 days followed by a booster injection, 21 days later. In the case of the peptides, a dose of 70 μg in the presence of the adjuvant monophosphoryl lipid A+trehalose dimycolate (MPL-TDM, Ribi ImmunoChem Research Inc.) and Al(OH)3 was used for all injections. […]
(§1) For assays of protection against S. mansoni, the animals were challenged subcutaneously with 100 cercariae, 60 days after the last immunization and perfused 45 days later. Overall protection was calculated by the formula {(C−V)/C}×100, where C is the average number of worms in control animals and V is the average number of worms in vaccinated animals.

S. mansoni [2] = test: Second vaccination experiment against S. mansoni, footpad route (Example 5, FIG. 12); settings: challenge 100 cercariae; for Percentage protection {(C−V)/C}×100: 70 μg peptide + MPL-TDM + Al(OH)3, footpad route, perfused 45 days later; for Performance (protection) compared with recombinant whole protein r-Sm14: footpad route
Experimental: Percentage protection is given as in FIG. 9. From left to right the bars correspond to peptide 1.1, peptide 1.3, peptide 1.4, peptide 2.1, peptide 2.5, r-Sm14, adjuvant and PBS respectively. In this experiment all samples were administered via the footpad. All peptides were administered in the presence of adjuvant: monophosphoryl lipid A+trehalose dicorynomycolate (MPL-TDM, Ribi ImmunoChem Research Inc.)+Alum.
In this experiment an identical protocol as Example 4 was employed for a sub-group of peptides including those which appeared most promising (1.1; 1.3; 1.4 and 2.1) together with 2.5 as a control, but employing the footpad as the route of administration.
as §1, with “Animals” for “For assays of protection against S. mansoni, the animals”

F. hepatica = test: Fasciola hepatica protection assay (Example 6, FIG. 13); settings: footpad, oral challenge 3 metacercariae, sacrifice 30 days after challenge
Source text: Due to the limited number of parasites used for challenge, animals are considered protected when they present sterile immunity, i.e. no adult worms are present after sacrifice. The mean protection is therefore given as the percentage of sterile animals at sacrifice. From left to right the bars correspond to peptide 1.1, peptide 1.3, peptide 1.4, peptide 2.1, peptide 2.5, r-Sm14+adjuvant, r-Sm14, adjuvant and PBS respectively. The adjuvant used was monophosphoryl lipid A+trehalose dicorynomycolate (MPL-TDM, Ribi ImmunoChem Research Inc.)+Alum.
This example refers to the use of some of the peptides described in Example 1 for vaccination against Fasciola hepatica in the Swiss mouse model. For the Fasciola hepatica protection assay each group (10 outbred Swiss mice/group) received three intradermal/subcutaneous doses via the footpad using an identical protocol to that described above for S. mansoni. Animals were vaccinated with either 70 μg of one of the sub-group of peptides described above (1.1, 1.3, 1.4, 2.1 and 2.5), emulsified in Ribi adjuvant (MPL-TDM) and Al(OH)3 or 10 μg of r-Sm14 (in the presence or absence of adjuvant), or an equivalent amount of adjuvant alone. Vaccinated and non-vaccinated control groups were simultaneously challenged orally with 3 metacercariae of F. hepatica 60 days after immunization and the sacrifice of all animals performed 30 days after challenge.

[3] = with adjuvant MPL-TDM + Al(OH)3, 70 μg peptide or 10 μg r-Sm14

Row | Molecule | Percentage protection {(C−V)/C}×100 (S. mansoni [1]) | Percentage protection {(C−V)/C}×100 (S. mansoni [2]) | Performance (protection) compared with recombinant whole protein r-Sm14 (S. mansoni [2]) | Percentage protection (percentage of sterile animals at sacrifice) (F. hepatica; [3]) | Percentage protection (percentage of sterile animals at sacrifice) (F. hepatica; absence of adjuvant, 10 μg r-Sm14)
1 | EKFSESKLTFDGIVREVDGATMKTT (Oligopeptide derived from the fusion of two peptides from Schistosoma mansoni) [Peptide 2.5, Alternate modification to 2.3] | no protection at all and zero | – | – | – | –
2 | EKNSESKLTQ (Oligopeptide from Schistosoma mansoni) [Peptide 2.1, Loop between β-strands 6 and 7 of Sm14, residues 85 to 94] | – | 50% | equivalent to that seen for the recombinant whole protein | 100% | –
3 | KIGTSVFGTRTSKFDATEMVLDKEE [Peptide 2.6, 2.5 randomized; control peptide of identical amino acid composition] | no protection at all and zero | – | – | – | –
4 | VTVGDVTA (oligopeptide from Schistosoma mansoni) [Peptide 1.1, Loop between β-strands 9 and 10 of Sm14, residues 118 to 125] | – | ~50% | equivalent to that seen for the recombinant whole protein | 66.7% | –
5 | VTVGDVTANFDAVMSKLG (Oligopeptide derived from the fusion of two peptides from Schistosoma mansoni) [Peptide 1.3, Union of 1.1 and 1.2] | – | – | equivalent to that seen for the recombinant whole protein | 50% | –
6 | VTVGDVTGGSDAVMSKLG (Oligopeptide derived from the fusion of two peptides from Schistosoma mansoni) [Peptide 1.4, 1.3 modified] | – | – | equivalent to that seen for the recombinant whole protein | 100% | –
7 | r-Sm14: recombinant Sm14 protein expressed by the pRSETA-6×His-Sm14 construct in E. coli BL21(DE3) (protein, UniProt P29498 1-133, looked up, 6xHis tag) 14 kDa fatty acid-binding …: MSSFLGKWKLSESHNFDAVMSKLGVSWATRQIGNTVTPTVTFTMDGDKMTMLTESTFKNLSCTFKFGEEFDEKTSDGRNVKSVVEKNSESKLTQTQVDPKNTTVIVREVDGDTMKTTVTVGDVTAIRNYKRLS | – | – | – | 100% | 100%
